How the values were obtained:
[1] = system: MDA-MB-231 (breast adenocarcinoma); assay: Cell viability of chemoresistant MDA-MB-231 cells (Tables 1, 2, 4)
Source text: (§1) The activity of the association of at least one flavonoid with synthetic chemotherapeutic agents (cyclophosphamide/methotrexate) and/or arctigenin, arctiin, berberine, berbamine, sanguinarine and chelerythrine (indicated with the term “Extracts” in the Tables) was studied in resistant cell lines of adenocarcinomas and carcinomas in comparison with chemosensitive tumour cell lines and line cells.
(§2) In particular, chemoresistant human tumour cells MDA-MB-231 (breast adenocarcinoma), ECV-304 (bladder carcinoma), HuH-7 (hepatocellular carcinoma) and HTB-43 (squamous cell carcinoma of the pharynx), chemosensitive tumour cells MCF-7 (breast adenocarcinoma) and non-tumoral healthy human mammal fibroblasts (HMF) were used.

[2] = system: MCF-7 (breast adenocarcinoma); assay: Cell viability of chemosensitive MCF-7 cells (Table 1); details: Homo sapiens, MCF7, read-out: Cell viability (%) MCF-7
Source text: as §1, §2

[3] = system: healthy human mammal fibroblasts (HMF); assay: Cell viability of non-tumoral healthy fibroblasts HMF (Table 1); details: control = 100
Source text: as §1, §2

[4] = system: ECV-304 (bladder carcinoma); assay: cells; details: Homo sapiens, ECV-304, read-out: Cell viability (%) ECV-304
Source text: as §1, §2

[5] = system: HTB-43 (squamous cell carcinoma of the pharynx); assay: cells; details: Homo sapiens, read-out: Cell viability (%) HTB-43
Source text: as §1, §2

[6] = system: HuH-7 (hepatocellular carcinoma); assay: cells; details: Homo sapiens, Huh-7, read-out: Cell viability (%) HuH-7
Source text: as §1, §2

MDA-MB-231 cells = assay: Cell viability of MDA-MB-231 cells after 7 days of treatment (Tables 7-9); format: cell-based, human
in vitro = details: human
Source text: as §1, §2

[7] = Homo sapiens, MDA-MB-231, read-out: Cell viability (%) MDA-MB-231

SMILES: O=P1(N(CCCl)CCCl)NCCCO1 (stereo not shown) [Cyclophosphamide, cyclophosphamide]
- viability at 0.85 µg/mL [1, 7]: 96%
- viability at 1 µg/mL [1, 7]: 93%
- viability at 1.3 µg/mL [1, 7]: 89%
- viability at 0.85 µg/mL [2]: 6.9%
- viability at 1 µg/mL [2]: 7.5%
- viability at 1.3 µg/mL [2]: 8.6%
- Cell viability (%) HMF ([3]; single agent at 850 ng/mL): 54%
- Cell viability (%) HMF ([3]; single agent at 1000 ng/mL): 48%
- Cell viability (%) HMF ([3]; single agent at 1300 ng/mL): 42%
- viability at 0.85 µg/mL [4]: 70%
- viability at 0.85 µg/mL [5]: 36%
- viability at 0.85 µg/mL [6]: 58%
- viability at 40 µM (MDA-MB-231 cells; Homo sapiens, MDA-MB-231, 168 h, read-out: Cell viability % (MDA-MB-231, 7 days)): 1.07 ± 0.22%

SMILES: O=c1c(O)c(-c2ccc(O)c(O)c2)oc2cc(O)cc(O)c12 [Quercetin, quercetin]
- viability at 20 µM [1, 7]: 91%
- viability at 50 µM [1, 7]: 81%
- viability at 100 µM [1, 7]: 76%
- Synergistic effect in association with cyclophosphamide ([1]; MDA-MB-231 cells, alone or with cyclophosphamide 850 ng/mL): absence of synergistic effects

SMILES: C[C@@H]1O[C@@H](OC[C@H]2O[C@@H](Oc3c(-c4ccc(O)c(O)c4)oc4cc(O)cc(O)c4c3=O)[C@H](O)[C@@H](O)[C@@H]2O)[C@H](O)[C@H](O)[C@H]1O [Rutin, 2-(3,4-dihydroxyphenyl)-4,5-dihydroxy-3-{3,4,5-trihydroxy-6-[(3,4,5-trihydroxy-6-methyl-oxan-2-yl)oxymethyl}oxan-2-yl]oxy-chromen-7-one]
- viability at 20 µM [1, 7]: 66%
- viability at 50 µM [1, 7]: 58%
- viability at 100 µM [1, 7]: 51%
- viability at 20 µM [2]: 8%
- viability at 50 µM [2]: 5%
- viability at 100 µM [2]: 4%
- viability at 20 µM (in vitro): 92%
- viability at 50 µM (in vitro): 88%
- viability at 100 µM (in vitro): 86%
- Effect on cell viability of adding the flavonoid to cyclophosphamide 20 μM+methotrexate 2 μM (MDA-MB-231 cells; 20 μM of rutin, MDA-MB-231, 7 days): further reduces cell viability
- Effect on cell viability of adding the flavonoid to cyclophosphamide 40 μM+methotrexate 4 μM (MDA-MB-231 cells; rutin at 100 μM and 50 μM, MDA-MB-231, 7 days): no statistically relevant difference
